This is an account of results in patent publication US20100173013A1, “TREATMENT OF NEOPLASTIC DISORDERS USING COMBINATION THERAPIES” (priority 2009, published 2010).

One assay deals with A375 melanoma cells. The experiment in a line: Alamar Blue cell inhibition assay, A375. The class given is cell-based. As to conditions: drug added 24 hours before Compound K, read-out: IC50 (single agent).
For assay [1], the system named is MIA PaCa-2 pancreatic cancer cells. The experiment in a line: Alamar Blue cell inhibition assay, MIA PaCa-2.
The subject of assay [2] is MDA-MB-468 breast cancer cells. The experiment in a line: Alamar Blue cell inhibition assay, MDA-MB-468. The class given is cell-based. As to conditions: 5 day assay, read-out: IC50 (single agent).
Assay [3] relates to BT-474 breast carcinoma cells. The experiment in a line: Alamar Blue cell inhibition assay, BT-474. The class given is cell-based. As to conditions: read-out: IC50 (single agent).
Assay [4] relates to T47D breast carcinoma cells. The experiment in a line: Alamar Blue cell inhibition assay, T47D. The class given is cell-based. As to conditions: read-out: IC50 (single agent).
Assay [5] deals with SUM-149PT inflammatory breast carcinoma cells. Description: Alamar Blue cell inhibition assay, SUM-149PT. As to conditions: for pIC50: read-out: IC50 (single agent). In kind it is cell-based.
In assay [6] the test system is erlotinib-resistant ZR-75-1 breast carcinoma cells. Description: Alamar Blue cell inhibition assay, ZR-75-1. In kind it is cell-based. As to conditions: 4 day assay, read-out: IC50 (single agent).
Assay [7] concerns phosphorylation of Akt at Ser129 and Ser473, PRAS40 at Thr246. As to conditions: MDA-MB-453; 10 uM Compound K, 100 uM Erlotinib, 2 uM Lapatinib; 2, 4 and 8 hour. The text has this: Whole proteomes were isolated from treated cells and analyzed by Western blot for changes in phosphorylation status of Akt at Ser129 and Ser473 or downstream mediator of Akt activity, PRAS40 at Thr246.

Assay [8] has as its system erlotinib-resistant MDA-MB-453 breast carcinoma cells. The experiment in a line: cells. As to conditions: Homo sapiens, MDA-MB-453, 96 h, read-out: IC50 (single agent).
The subject of assay [9] is Hs 578T breast cancer cells. Description: Alamar Blue cell inhibition assay, Hs 578T. In kind it is cell-based. As to conditions: 4 day assay, read-out: IC50 (single agent).
Assay [10] concerns SUM-190PT inflammatory breast carcinoma cells. Description: cells. As to conditions: for pIC50: read-out: IC50 (single agent).
The test system of assay [11] is phosphorylation of AKT at S129, T308, S473, p21 at T145, cleavage of PARP. Description: Western hybridization analysis in BT-474 (AKT, p21 phosphorylation, PARP cleavage). The class given is cell-based. As to conditions: 5 uM Compound K, 1 uM AKTi VIII, 5:1 combination, 8 hour assay.
For assay [12], the system named is erlotinib-resistant MDA-MB-453 breast carcinoma cells. As to conditions: read-out: IC50 (single agent), 4 day assay.
The mark [13] stands for this setting: Homo sapiens, A-375, A375, 5 day assay.
[14] abbreviates: Homo sapiens, MIA PaCa-2, read-out: IC50 (single agent).
Where [15] appears, read: Homo sapiens, MDA-MB-468, 120 h, Compound K added first, drug the next day.
Where [16] appears, read: Homo sapiens, MDA-MB-468, 120 h, drug added first, Compound K the next day.
[17] abbreviates: Homo sapiens, 72 h, BT-474, 3 day assay.
[18] abbreviates: Homo sapiens, 96 h, BT-474, 4 day assay.
Setting [19] is: Homo sapiens, 96 h, T47D, 4 day assay.
Where [20] appears, read: Compound K added first, drug the next day.

Structures are written as SMILES. pIC50: −log10 of the molar value. Where “and” joins values, the source holds several entries; their conditions need not be identical. Identical values can stand only once. Counter-ions that a name gives are not always drawn. Like-named read-outs stand apart in the source and are kept apart here. Where only a bound is given, the exact number is not on record here.

Consider `CC[C@]1(O)C[C@@H]2CN(CCc3c([nH]c4ccccc34)[C@@](C(=O)OC)(c3cc4c(cc3OC)N(C)[C@H]3[C@@](O)(C(=O)OC)[C@H](OC(C)=O)[C@]5(CC)C=CCN6CC[C@]43[C@@H]65)C2)C1` [Vinblastine], for which the pIC50 in the assay on A375 melanoma cells (setting [13]) is 8.92; in assay [1] (setting [14]) it was 10.85.
For `COc1cccc2c1C(=O)c1c(O)c3c(c(O)c1C2=O)C[C@@](O)(C(=O)CO)C[C@@H]3O[C@H]1C[C@H](N)[C@H](O)[C@H](C)O1` [Doxorubicin], the results for the pIC50 in assay [2] (setting [15]) and in assay [2] (setting [16]) were 7.80 and 7.77, respectively.
As to `Oc1cccc(-c2nc(N3CCOCC3)c3oc4ncccc4c3n2)c1` [PI-103, 3-[4-(4-morpholinylpyrido[3′,2′:4,5]furo[3,2-d]pyrimidin-2-yl]phenol hydrochloride], the pIC50 in [3] (setting [17]) is 6.39; in assay [4] (Homo sapiens, T47D, 72 h), 5.27.
Turning to `C#Cc1cccc(Nc2ncnc3cc(OCCOC)c(OCCOC)cc23)c1` [Erlotinib], in assay [5] (Compound K 0 μM, Erlotinib 10 μM, Erlotinib added 24 h before K, 5 day assay, positive=synergy, negative=antagonism), the “degree of inhibitory effect found with agent combination” value amounted to 0.0%. Further, the pIC50 is 5.66 in assay [5] (Homo sapiens, SUM149PT); 5.18 in [3] (setting [18]); 4.33 in assay [4] (setting [19]); under 3.70 in [6] (Homo sapiens, 96 h); under 4.00 in assay [8]. For the same compound, the “phosphorylation of Akt at Ser129” value in assay [7] is given as “no effect”. Further, in [7], the “phosphorylation of Akt at Ser473” value was “below the detectable levels”. Further, the “phosphorylation of PRAS40 at Thr246” value in [7] is reported as “pronounced decrease”.
`CCN(CC)CCNC(=O)c1c(C)[nH]c(/C=C2\C(=O)Nc3ccc(F)cc32)c1C` [Sunitinib]: the pIC50 with A375 melanoma cells (Homo sapiens, A-375, A375, 4 day assay) was 6.84; in assay [4] (setting [19]), 5.21; in assay [1] (setting [14]) it was 6.38.
As for `CS(=O)(=O)CCNCc1ccc(-c2ccc3ncnc(Nc4ccc(OCc5cccc(F)c5)c(Cl)c4)c3c2)o1` [Lapatinib], in [4] (setting [19]), the pIC50 was 5.25. For the same compound, in [7], the “phosphorylation of Akt at Ser129” value was “no effect”, the “phosphorylation of Akt at Ser473” value is on record as “below the detectable levels” and the “phosphorylation of PRAS40 at Thr246” value is “pronounced decrease”.
With `CO[C@H]1/C=C\C=C(/C)C(=O)NC2=CC(=O)C(NCCN(C)C)=C(C[C@@H](C)C[C@H](OC)[C@H](O)[C@@H](C)/C=C(\C)[C@@H]1OC(N)=O)C2=O` [Compound 17-DMAG, 17-Dimethylamino-ethylamino-17-demethoxygeldanamycin], the pIC50 in assay [9] was 8.20.
Turning to `COC[C@H]1OC(=O)c2coc3c2[C@@]1(C)C1=C(C3=O)[C@@H]2CCC(=O)[C@@]2(C)C[C@H]1OC(C)=O` [Wortmannin], in [3] (setting [17]), the pIC50 is 4.59.
On to `Nc1ccn([C@@H]2O[C@H](CO)[C@@H](O)C2(F)F)c(=O)n1` [Gemcitabine], for which the pIC50 in assay [2] (setting [15]) was 8.10; in assay [2] (setting [16]), 8.06; in assay [1] (setting [14]) it was 6.74.
For the compound `O=c1[nH]cc(F)c(=O)[nH]1` [5-Fluorouracil], the pIC50 with A375 melanoma cells (setting [13]) was 5.52; in [2] (setting [15]), 4.97; in assay [5] (Homo sapiens, SUM149PT), 5.77; in [10] (SUM190PT), 4.91. For the same compound, the “degree of inhibitory effect found with agent combination” value in [10] (Compound K 0 μM, 5-Fluorouracil 10 μM, 5-Fluorouracil added 24 h before K, 5 day assay, positive=synergy, negative=antagonism) is 0.0% and −0.0%.
With `Nc1nc(F)nc2c1ncn2[C@@H]1O[C@H](CO)[C@@H](O)[C@@H]1O` [Fludarabine], the pIC50 in the assay on A375 melanoma cells (setting [13]) is 8.54.
As for `Cn1c(=O)n(-c2ccc(C(C)(C)C#N)cc2)c2c3cc(-c4cnc5ccccc5c4)ccc3ncc21` [BEZ235], in assay [3] (setting [17]), the pIC50 was 8.00.
`CNC(=O)c1cc(Oc2ccc(NC(=O)Nc3ccc(Cl)c(C(F)(F)F)c3)cc2)ccn1` [Sorafenib]: in [4] (setting [19]), the pIC50 is 5.45.
As to `O=C(O)c1ccc2c(c1)nc(Nc1cccc(Cl)c1)c1ccncc12` [Compound K], the pIC50 with A375 melanoma cells (A375, 4 day assay) is 5.30 and 5.32 and 5.29; in assay [2] (setting [20]), 5.34 and 5.35 and 5.37; in assay [2] (drug added first, Compound K the next day), 5.36 and 5.37 and 5.35; in assay [10] (SUM-190PT, drug added 24 hours before Compound K, 5 day assay) it was 6.07; in [3], 5.57 and 5.54; in assay [4] (T47D, 4 day assay) it was 5.23. Moreover, the pIC50 in assay [4] (T-47D, 3 day assay) is 5.47; in assay [6], 5.39; in assay [9] it was 4.75 and 4.78; in assay [12], 5.21; in assay [1] (read-out: IC50 (single agent), MIA PaCa-2, added simultaneously, 4 day assay) it was 5.77; in assay [1] (read-out: IC50 (single agent), MIA PaCa-2, drug added 24 hours before Compound K, 4 day assay), 5.82 and 5.70. The pIC50 in assay [1] (read-out: IC50 (single agent), MIA PaCa-2, drug added 24 hours before Compound K, 5 day assay) was 5.39. Further, in [7], the “phosphorylation of Akt at Ser129” value is reported as “significant reduction”. In addition, in assay [7], the “phosphorylation of Akt at Ser473” value is given as “affected, but to a lesser degree”. In [7], the “phosphorylation of PRAS40 at Thr246” value is reported as “significantly less pronounced”. The “cleavage of PARP (i.e. induction of apoptosis)” value in [11] is reported as “very minor effect”. In addition, the “phosphorylation of AKT at S129” value in assay [11] is on record as “Dramatically reduced”. The “phosphorylation of AKT at T308 and S473” value in assay [11] is listed as “moderate effect”. Further, the “phosphorylation of p21 at T145” value in [11] was “Dramatically decreased”.
For `Cc1[nH]c2ccccc2c1CCNCc1ccc(/C=C/C(=O)NO)cc1` [Panobinostat], the pIC50 in assay [9] (Homo sapiens, 96 h) was 8.56.
Turning to `O=c1cc(N2CCOCC2)oc2c(-c3ccccc3)cccc12` [LY294002, 2-(4-morpholinyl)-8-phenyl-4H-1-benzopyran-4-one], in assay [3] (setting [17]), the negative-log IC50 (pIC50) was 5.65.
As to `CO[C@H]1C[C@@H]2CC[C@@H](C)[C@@](O)(O2)C(=O)C(=O)N2CCCC[C@H]2C(=O)O[C@H]([C@H](C)C[C@@H]2CC[C@@H](O)[C@H](OC)C2)CC(=O)[C@H](C)/C=C(\C)[C@@H](O)[C@@H](OC)C(=O)[C@H](C)C[C@H](C)/C=C/C=C/C=C/1C` [Rapamycin], the pIC50 in assay [5] (Homo sapiens, SUM149PT) is 5.01; in assay [1] (Homo sapiens, MIA PaCa-2, 96 h, read-out: IC50 (single agent)) it was 4.74.
In the case of `O=c1[nH]c2ccccc2n1C1CCN(Cc2ccc(-c3nc4cc5[nH]cnc5cc4nc3-c3ccccc3)cc2)CC1` [AKTi VIII, 1,3-Dihydro-1-(1-((4-(6-phenyl-1H-imidazo[4,5-g]quinoxalin-7-yl)phenyl)methyl)-4-piperidinyl)-2H-benzimidazol-2-one], the pIC50 in assay [3] (setting [17]) is 6.26. For the same compound, in assay [3] (setting [18]), the pIC50 was 6.30. Further, in assay [11], the “cleavage of PARP (i.e. induction of apoptosis)” value is recorded as “very minor effect”; the “phosphorylation of AKT at S129” value is on record as “no effect”; the “phosphorylation of AKT at T308 and S473” value is “Dramatically reduced”; the “phosphorylation of p21 at T145” value is on record as “Dramatically decreased”.
In the case of `N.N.[Cl][Pt][Cl]` [Cisplatin], the pIC50 is 6.37 in assay [2] (setting [20]) and 6.34 in [5] (SUM-149PT, drug added 24 hours before Compound K, 5 day assay).
